In paper PMC3989846 (Malaria Journal, 2014):

Key:
[1] = tested on: luciferase-expressing P. berghei ANKA sporozoites; test: Real time in vivo imaging (IVIS) of liver-stage luminescence in sporozoite-infected mice; design: species or system Plasmodium berghei; conditions: for Suppression rate (%) IVIS 24 h: 24 h post infection; for Suppression rate (%) IVIS 48 h: 48 h post infection; for Suppression rate (%) IVIS 72 h: 72 h post infection
Description: Luciferase-expressing P. berghei ANKA sporozoites were obtained from laboratory-reared female An. stephensi mosquitoes from the Department of Mosquito Biology, WRAIR. […] Salivary glands were extracted from malaria-infected mosquitoes and kept on ice in RPMI medium with 1% mouse serum. Sporozoites will be recovered by the method of Ozaki, and quantitated using a haemocytometer. Sporozoites isolated from the same batch of mosquitoes will be inoculated into C57BL/6 albino mice on the same day to control for biological variability in sporozoite preparations. Each C57BL/6 mouse will be inoculated intravenously in the tail vein with approximately 50,000 sporozoites suspended in 0.1 mL volume on day 0. To ensure that inoculated sporozoites are viable following the isolation procedure, they will be stained with a vital dye containing fluorescein diacetate (50 mg/mL in acetone) and ethidium bromide (20 μg/mL in phosphate-buffered saline; Sigma Chemical Co., St. Louis, Mo.) and counted in a haemocytometer.
[…] […] Additionally, blood stage infections were measured by flow cytometry. Positive and negative controls were used for the IVIS calibration in each test.
(§1) Causal prophylactic effects and delay in onset of parasitaemia in animals treated with TQ and PQ (Figure 1) were assessed in these experiments, which included a positive control, 4-methyl-PQ. All dosing was conducted based on the body weight at the time of preparation of the dosing solution. […] Each animal received 0.1 - 0.2 ml of the oral solutions, delivered via an intragastric feeder (18-gauge) to the designated recipient. Stock solutions of test compounds were prepared fresh daily by grinding the needed amount of drug in cold (4°C) 0.5% (w/v) hydroxyethyl cellulose and 0.2% (v/v) Tween-80 (0.5% HECT) and diluting the resulting solution at variable concentrations. C57BL/6 albino mice were challenged intravenously with 50,000 luciferase-expressing P. berghei sporozoites extracted from the salivary glands of heavily infected An. stephensi mosquitoes. […] At day 5–30 after infection, the same mice were analysed for blood stage infection by determination of the course of parasitaemia of tail blood by flow cytometry using an FC500 flow cytometer (Beckman-Coulter Co. CA).
In vivo imaging studies of bioluminescence activity from luciferase expressing P. berghei infected mice were performed using a Perkin Elmer IVIS Spectrum (Hanover, MD). […] Three minutes post luciferin administration the mice were anesthetized with inhaled isoflurane. The mice were then positioned ventral side up in the IVIS on a 37°C platform. The mice continue to receive isoflurane through nose cone delivery. The camera exposure times utilized were 1 and 5 minutes for the 24, 48, and 72 hour time points with f-stop = 1 and large binning setting. Quantitative analysis of bioluminescence emitted from whole bodies or region of intensity (ROI) were determined by measuring the luminescence signal intensity in photons/second using the ROI settings of the Living Image® 3.0 software. The ROI, which measurements were expressed in total flux of photons, was set to measure the abdominal area at the location of the liver from whole body imaging.
In the in vivo imaging experiments, causal prophylaxis activity, sporontocidal activity, parasite clearance, causal cure, delays in patency, and time to recrudescence were calculated as described previously. The minimum curative dose (MCD100) in 100% animals was defined as the lowest dose, which cured all animals (>5 animals) in a group at any time during the first 30 days of the follow-up period.

[2] = tested on: P. berghei ANKA blood stage parasitaemia; test: Blood stage infection by flow cytometry (FCM) and causal prophylaxis outcome after sporozoite challenge; format: in vivo, Plasmodium berghei; conditions: for Effects: CP = causal prophylaxis; for Blood Infection by FCM: infected/challenged mice
Protocol: Novel and control anti-malarials were administered orally on days -1, 0, and 1 with respect to sporozoite inoculation. […] Additionally, blood stage infections were measured by flow cytometry. Positive and negative controls were used for the IVIS calibration in each test.
as §1
At day 5–30 after infection, the same mice were analysed for blood stage infections by quantitation of malaria parasites by flow cytometry (FCM). All FCM analyses were carried out with a FC500 MPL flow cytometer (Beckman Coulter, Fullerton, CA), which conducts five-colour analysis from either single or dual laser excitation. Infected erythrocytes, uninfected erythrocytes, and leukocytes were gated on logarithmic forward/side dot plots. Cells were analysed at an average rate of 2,000-3,000 erythrocytes/s. Filters were placed before the green (FL-1) and red (FL-2) photomultiplier tubes (PMTs) such that the green PMT registered fluorescence emission between 520 and 555 nm, and the red PMT measured emission greater than 580 nm.
A drop of blood (3 μL) from the mouse tail was collected directly into 0.3 ml of 1% heparinized isotonic buffer (PBS saline). In this study, 1 ml 0.04% of glutaraldehyde was used for fixation and the samples were then incubated at 4°C for 60 minutes. The cells were centrifuged at 450 × g for 5 min. […] After centrifugation, the permeabilized cells were re-suspended in 0.5 ml of RNAse at 1 mg/ml concentrations and incubated for at least 2 hours at 37°C to ensure complete digestion of reticulocytes. Plasmodium berghei infection in mice results in anaemia which then results in reticulocytosis. Therefore, high RNAse concentrations for digesting large amounts of reticulocytes RNA were required for assessment of parasitaemia in this mouse model.
In the in vivo imaging experiments, causal prophylaxis activity, sporontocidal activity, parasite clearance, causal cure, delays in patency, and time to recrudescence were calculated as described previously. The minimum curative dose (MCD100) in 100% animals was defined as the lowest dose, which cured all animals (>5 animals) in a group at any time during the first 30 days of the follow-up period. […] Means and standard deviations of photon measurement were calculated. Blood stage infection was defined as two positive blood samples by flow cytometry, taken daily apart. The negative blood samples were monitored until day 15 after inoculation. Coefficients of variation were calculated as a percentage by dividing the standard deviation by the mean value.

[3] = 5 mg/kg oral, 3 days (-1, 0, 1)
[4] = 10 mg/kg oral, 3 days (-1, 0, 1)
[5] = 15 mg/kg oral, 3 days (-1, 0, 1)
[6] = 20 mg/kg oral, 3 days (-1, 0, 1)
[7] = 25 mg/kg oral, 3 days (-1, 0, 1)
[8] = 25 mg/kg single oral dose on day 0
[9] = 25 mg/kg single oral dose on day -1
[10] = 1.25 mg/kg oral, 3 days (-1, 0, 1)
[11] = 5 mg/kg single oral dose on day 0
[12] = 5 mg/kg single oral dose on day -1

COc1cc(NC(C)CCCN)c2ncccc2c1 (stereo not drawn) [Primaquine, primaquine]
Suppression rate (%) IVIS 24 h [1, 3]: 82.4%
Suppression rate (%) IVIS 48 h [1, 3]: 77.5%
Suppression rate (%) IVIS 72 h [1, 3]: 89.4%
Suppression rate (%) IVIS 24 h [1, 4]: 100%
Suppression rate (%) IVIS 48 h [1, 4]: 97.6%
Suppression rate (%) IVIS 72 h [1, 4]: 100%
low level of luminescence ([1]; 10 mg/kg x 3 days, 5 of 10 animals, 48 hours): 0.66 × 10^5 photons/sec
Suppression rate (%) IVIS 24 h [1, 5]: 100%
Suppression rate (%) IVIS 48 h [1, 5]: 100%
Suppression rate (%) IVIS 72 h [1, 5]: 100%
Suppression rate (%) IVIS 24 h [1, 6]: 100%
Suppression rate (%) IVIS 48 h [1, 6]: 100%
Suppression rate (%) IVIS 72 h [1, 6]: 100%
Suppression rate (%) IVIS 24 h [1, 7]: 100%
Suppression rate (%) IVIS 48 h [1, 7]: 100%
Suppression rate (%) IVIS 72 h [1, 7]: 100%
Suppression rate (%) IVIS 24 h [1, 8]: 11.2%
Suppression rate (%) IVIS 48 h [1, 8]: 0%
Suppression rate (%) IVIS 72 h [1, 8]: 0%
Suppression rate (%) IVIS 24 h [1, 9]: 45.7%
Suppression rate (%) IVIS 48 h [1, 9]: 0%
Suppression rate (%) IVIS 72 h [1, 9]: 0%
liver luminescence after 24 hours ([1]; single oral dose 25 mg/kg): high levels of luminescence and no suppression of signal
Effects [2, 3]: Suppression
Blood Infection by FCM [2, 3]: 5/5
Effects [2, 4]: Partial CP
Blood Infection by FCM [2, 4]: 5/10
Effects [2, 5]: Partial CP
Blood Infection by FCM [2, 5]: 4/20
Effects [2, 6]: Partial CP
Blood Infection by FCM [2, 6]: 1/10
Delay in patency (days after onset in controls) ([2]; 20 mg/kg oral, 3 days (-1, 0, 1), per infected mouse): 6 days
Effects [2, 7]: Full CP
Blood Infection by FCM [2, 7]: 0/10
Effects [2, 8]: Suppression
Blood Infection by FCM [2, 8]: 5/5
Effects [2, 9]: Suppression
Blood Infection by FCM [2, 9]: 5/5
blood stage parasitaemia 5–30 days after infection ([2]; single oral dose 25 mg/kg): severe parasitaemia

COc1cc(C)c2c(Oc3cccc(C(F)(F)F)c3)c(OC)cc(NC(C)CCCN)c2n1 (stereo not drawn) [Tafenoquine, tafenoquine]
Suppression rate (%) IVIS 24 h [1, 10]: 84.7%
Suppression rate (%) IVIS 48 h [1, 10]: 92.3%
Suppression rate (%) IVIS 72 h [1, 10]: 98.9%
Suppression rate (%) IVIS 48 h [1, 3]: 100%
Suppression rate (%) IVIS 72 h [1, 3]: 100%
Suppression rate (%) IVIS 24 h [1, 11]: 66.0%
Suppression rate (%) IVIS 48 h [1, 11]: 91.1%
Suppression rate (%) IVIS 72 h [1, 11]: 98.5%
Suppression rate (%) IVIS 24 h [1, 12]: 68.7%
Suppression rate (%) IVIS 48 h [1, 12]: 98.6%
Suppression rate (%) IVIS 72 h [1, 12]: 100%
Suppression rate (%) IVIS 24 h [1, 4]: 100%
Suppression rate (%) IVIS 48 h [1, 4]: 100%
Suppression rate (%) IVIS 72 h [1, 4]: 100%
Number of C57BL/albino mice Causal prophylaxis [2, 10]: 1/5
Number of C57BL/albino mice Protected completely [2, 10]: 1
Effects [2, 10]: Suppression
Blood Infection by FCM [2, 10]: 4/5
Number of C57BL/albino mice Causal prophylaxis [2, 3]: 13/13
Number of C57BL/albino mice Protected completely [2, 3]: 13
Effects [2, 3]: Full CP
Blood Infection by FCM [2, 3]: 0/13
Number of C57BL/albino mice Causal prophylaxis [2, 11]: 1/5
Number of C57BL/albino mice Protected completely [2, 11]: 1
Effects [2, 11]: Partial CP
Blood Infection by FCM [2, 11]: 4/5
Number of C57BL/albino mice Causal prophylaxis [2, 12]: 10/10
Number of C57BL/albino mice Protected completely [2, 12]: 10
Effects [2, 12]: Full CP
Blood Infection by FCM [2, 12]: 0/10
Blood Infection by FCM ([2]; 5 mg/kg single oral dose on day -1, listed as TQ): no blood stage parasitaemia
Number of C57BL/albino mice Causal prophylaxis [2, 4]: 5/5
Number of C57BL/albino mice Protected completely [2, 4]: 5
Effects [2, 4]: Full CP
Blood Infection by FCM [2, 4]: 0/5
Number of C57BL/albino mice Causal prophylaxis ([2]; […] oral, 3 days (-1, 0, 1)): 3/5
Number of C57BL/albino mice Protected completely ([2]; […] oral, 3 days (-1, 0, 1)): 3
minimal curative single oral dose ([2]; single oral dose, causal prophylaxis in mice): 5 mg/kg
causal activity ([2]; three oral doses: TQ 5 mg/kg, PQ 25 mg/kg): 100%
